How the values were obtained:
L1210 d[NTP] pool levels = test: Deoxyribonucleoside triphosphate pool levels; type: cell-based, mouse; conditions: 100 μM, 60 min, N=6
From the text: (§1) CYTOTOXlCITY OF POLY(PHENOLIC)SULFONATES AND THEIR SODIUM SALTS IN L1210 LYMPHOID LEUKEMIA CELLS Fei Wang, Amy E. Warren, Cheryl R. Barnes and Iris H. Hall* Division of Medicinal Chemistry and Natural Products University of North Carolina Chapel Hill, N.C. […] Because ofthese properties it was surmised that these poly(phenolic)sulfonated compounds may have antineoplastic activity. METHODS Source of Compounds Test compounds were supplied by GeneLabs, Inc. [Redwood City, CA [Table 1]. Radioisotopes were obtained from New England Nuclear [Dupont, Boston, MA]. Substrates and co-factors were purchased om Sigma Chemical Co., [St Louis, MO]. Pentosan sulfate and other antineoplastic standards were obtained from Sigma Chemical Co. Tumor lines were obtained from American Type Culture Collection [Rockville, MD]. 147 Vol. 5, No. 3, 1998 Cytotoxicity ofSodium Poly(Phenolic)Sulfonates in L1210 Lymphoid Leukemia Cells Table 1 Structures of Poly(phenolic)sulfonate Compounds O2R" n Compound R' R" n MW # G1-2041 H OH 8 1489.46 G1-2029 H OH 6 1117.09 G1-2030 H OH 4 744.73 GI-2021 CH3 ONa 8 1777.5 G1-2057 CH3 ONa 4 888.75 GI-2158 CH3 ONa 6 1333.13 GI-2063 OCH3 ONa 8 2001.65 G1-2042 OAc ONa 8 2017.73 Cytotoxicity Poly(phenolic)sulfonates were tested for cytotoxic activity by homogenizing drug in 0.05% Tween 80/H20 to give a mg/ml stock concentration. These solutions were sterilized by passing them through an acrodisc ([…]). The following cell lines were maintained by literature techniques: murine L1210 lymphoid leukemia, P-388 lymphocytic leukemia, rat UMR 106 osteosarcoma, human Tmolt3 acute lymphoblastic T cell leukemia, HUT-8 lymphoma, HeLa-S suspended cervical carcinoma, HeLa solid cervical carcinoma, KB epidermoid nasopharynx, A431 epidermoid carcinoma, colorectal adenocarcinoma SW480, HCT-8 ileocecal adenocarcinoma, lung bronchogenic MB-9812, A549 lung carcinoma, and glioma HS683. Geran et al.'s protocol was used to assess the cytotoxicity of the compounds and standards in each cell line. Cell numbers were determined by the trypan blue exclusion technique. Solid tumor cytotoxicity was determined by Leibovitz et al. 's method utilizing crystal violeeOH and read at 562 nm (Molecular Devices). Values for cytotoxicity were expressed as EDs0 g/ml, i.e. the concentration ofthe compound inhibiting 50% ofcell growth. A value of less than 4 µg/ml was required for significant activity ofgrowth inhibition. Incorporation Studies Incorporation of labeled precursors into 3H-DNA, 3H -RNA and 3H -protein for 10 L1210 cells was obtained. The concentration response for inhibition of DNA, RNA and protein synthesis of the compounds at 25, 50 and 100 l.tM was determined for 60 min incubations. Incorporation of 14C -glycine (53.0 mCi/mmol) into purines was obtained by the method of Cadman et al.[12]. Incorporation of 4C- formate (53.0 mCi/mmol) into pyrimidines was determined by the method of Christopherson et al.[13]. Enzyme Assays Inhibition of various enzyme activities was performed by first preparing the appropriate L1210 cell homogenates or subcellular fractions, then adding the drug to be tested during the enzyme assay. For the concentration response studies, inhibition of enzyme activity was determined at 25, 50 and 100 l.tM of compounds G1-2021, G1-2029, GI-2041 and G1-2063 after 60 min incubations. DNA polymerase Ot activity was determined in cytoplasmic extracts isolated by Eichler et aL's method. The DNA polymerase assay was described by Sedwick et al.[15] using 3H-TTP. Messenger-, ribosomal- and transfer-RNA polymerase enzymes were isolated with different concentrations of ammonium sulfate; individual RNA polymerase activities were determined using 3H -UTP 16,17]. Ribonucleoside reductase activity was measured using 4C -CDP with dithioerythritol. The deoxyribonucleotides 4C -dCDP were separated from the ribonucleotides by TLC on PEI plates. […]

Ribonucleoside reductase = biological target: T1, Ribonucleoside reductase (Mus musculus, UniProt P07742); test: Ribonucleoside reductase activity, L1210; type: biochemical; conditions: 60 min, N=6
T1 construct: preparing the appropriate L1210 cell homogenates or subcellular fractions; endogenous in cells; host or cells: L1210 murine lymphoid leukemia cells, homogenate or subcellular fraction
T1 sequence (P07742 1-792): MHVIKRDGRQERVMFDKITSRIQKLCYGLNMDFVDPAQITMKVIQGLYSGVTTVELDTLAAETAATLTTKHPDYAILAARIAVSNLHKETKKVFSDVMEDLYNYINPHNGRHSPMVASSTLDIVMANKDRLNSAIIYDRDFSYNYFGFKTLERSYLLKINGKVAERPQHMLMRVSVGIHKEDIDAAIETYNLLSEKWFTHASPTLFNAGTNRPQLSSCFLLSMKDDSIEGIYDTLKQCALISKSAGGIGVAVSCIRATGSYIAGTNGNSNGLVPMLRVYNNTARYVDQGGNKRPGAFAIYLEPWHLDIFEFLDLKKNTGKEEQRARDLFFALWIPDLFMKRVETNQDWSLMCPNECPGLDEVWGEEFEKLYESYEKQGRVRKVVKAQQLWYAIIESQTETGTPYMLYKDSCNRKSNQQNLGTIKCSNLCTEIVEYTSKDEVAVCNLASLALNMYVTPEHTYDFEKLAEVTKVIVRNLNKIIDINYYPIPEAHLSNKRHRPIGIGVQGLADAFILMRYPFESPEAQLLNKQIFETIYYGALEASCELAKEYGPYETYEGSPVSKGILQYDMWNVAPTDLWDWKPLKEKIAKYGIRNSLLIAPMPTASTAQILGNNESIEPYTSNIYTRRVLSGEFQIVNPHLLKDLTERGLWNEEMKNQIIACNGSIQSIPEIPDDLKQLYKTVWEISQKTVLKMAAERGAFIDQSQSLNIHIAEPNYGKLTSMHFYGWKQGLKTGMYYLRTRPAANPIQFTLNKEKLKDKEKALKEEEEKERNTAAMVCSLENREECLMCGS
T1 sequence (P11157 1-390 partner): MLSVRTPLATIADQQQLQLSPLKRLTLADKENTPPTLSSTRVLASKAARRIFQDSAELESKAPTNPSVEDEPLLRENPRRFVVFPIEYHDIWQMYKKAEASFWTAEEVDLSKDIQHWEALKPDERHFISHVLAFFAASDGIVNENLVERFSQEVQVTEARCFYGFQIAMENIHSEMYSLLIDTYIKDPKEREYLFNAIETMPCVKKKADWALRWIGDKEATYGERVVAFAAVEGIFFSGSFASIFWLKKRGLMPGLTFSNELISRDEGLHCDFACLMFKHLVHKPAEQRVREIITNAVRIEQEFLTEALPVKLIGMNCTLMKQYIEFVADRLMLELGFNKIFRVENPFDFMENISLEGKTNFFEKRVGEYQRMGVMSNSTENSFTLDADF
From the text: as §1

| SMILES | d(ATP) (L1210 d[NTP] pool levels) | d(CTP) (L1210 d[NTP] pool levels) | d(GTP) (L1210 d[NTP] pool levels) | d(TTP) (L1210 d[NTP] pool levels) | Ribonucleoside reductase (Ribonucleoside reductase; 25 μM) | Ribonucleoside reductase (Ribonucleoside reductase; 50 μM) | Ribonucleoside reductase (Ribonucleoside reductase; 100 μM) |
| --- | --- | --- | --- | --- | --- | --- | --- |
| COc1c2cc(S(=O)(=O)[O-])cc1Cc1cc(S(=O)(=O)[O-])cc(c1OC)Cc1cc(S(=O)(=O)[O-])cc(c1OC)Cc1cc(S(=O)(=O)[O-])cc(c1OC)Cc1cc(S(=O)(=O)[O-])cc(c1OC)Cc1cc(S(=O)(=O)[O-])cc(c1OC)Cc1cc(S(=O)(=O)[O-])cc(c1OC)Cc1cc(S(=O)(=O)[O-])cc(c1OC)C2.[Na+].[Na+].[Na+].[Na+].[Na+].[Na+].[Na+].[Na+] [GI-2021] | 65+ 4% of Control | 67+5% of Control | 79+4% of Control | 88+6% of Control | 158+6% of Control | 124+5% of Control | 91+5% of Control |
| O=S(=O)(O)c1cc2c(O)c(c1)Cc1cc(S(=O)(=O)O)cc(c1O)Cc1cc(S(=O)(=O)O)cc(c1O)Cc1cc(S(=O)(=O)O)cc(c1O)Cc1cc(S(=O)(=O)O)cc(c1O)Cc1cc(S(=O)(=O)O)cc(c1O)C2 [GI-2029] | 68+5% of Control | 96+ 5% of Control | – | 98+5% of Control | 130+5% of Control | 130+6% of Control | 141+5% of Control |
| O=S(=O)(O)c1cc2c(O)c(c1)Cc1cc(S(=O)(=O)O)cc(c1O)Cc1cc(S(=O)(=O)O)cc(c1O)Cc1cc(S(=O)(=O)O)cc(c1O)Cc1cc(S(=O)(=O)O)cc(c1O)Cc1cc(S(=O)(=O)O)cc(c1O)Cc1cc(S(=O)(=O)O)cc(c1O)Cc1cc(S(=O)(=O)O)cc(c1O)C2 [GI-2041] | 62+ 5% of Control | – | 74+5% of Control | 89+6% of Control | 127+5% of Control | 127+6% of Control | – |

— PMC2365111, “Cytotoxicity of Poly(Phenolic)Sulfonates and Their Sodium Salts in L1210 Lymphoid Leukemia Cells” (Metal-Based Drugs, 1998)
